Data on 1 compound can be found in patent publication US9522124B2, “Methods for treating Alzheimer's disease” (Wisconsin Alumni Research Foundation, priority 2011, dated 2016).

Assay [1] has as its system cytosolic and nuclear proteins, histone proteins H3 and H4. The assay is described as follows: Lysine acetylation profile of cytosolic and nuclear proteins in H4 cells. In kind it is cell-based, human. Particulars: 48 hours. As to the method: FIG. 8. […] (A and B) H4 cells were treated with either compound 9 or 19 for 48 hours prior to Western blot assessment of the acetylation profile of cytosolic (A) and nuclear (B) proteins. (C) The nuclear fraction used in (B) was also used to assess the lysine acetylation profile of the histone proteins H3 and H4.
Western blotting was performed on a 4-12% Bis-Tris SDS-PAGE system (NuPAGE; Invitrogen, Carlsbad, Calif., USA) as described previously (Costantini et al., 2006; Jonas et al., 2008; Jonas et al., 2010; Ko and Puglielli, 2007; Ko and Puglielli, 2009; Pehar et al., 2010). The following antibodies were used in this study: anti-acetylated lysine (monoclonal; cat. no. ab409; Abcam, Cambridge, Mass., USA); anti-BACE1 (polyclonal; cat. no. ab2077; Abcam); anti-Myc (monoclonal; cat. no. sc-40; santa cruz, Santa Cruz, Calif., USA); anti-ATases/NAT8 (polyclonal; cat. no. AP4957c; Abgent, San Diego, Calif., USA); anti-actin (monoclonal; cat. no. A1978; Sigma, St Louis, Mo., USA); anti-C99 (monoclonal; cat. no. M066-3; MBL, Woburn, Mass., USA); anti-acetylated H3 (polyclonal; cat. no. 06-599, Millipore, Billerica, Mass.); anti-acetylated H4 (polyclonal; cat. no. 06-866, Millipore, Billerica, Mass.); anti-αPCNA (polyclonal; cat. no. AP2835b, Abgent, San Diego, Calif., USA).
Cytosolic and nuclear extracts were prepared as described before (Ko and Puglielli, 2007). For cytosolic extracts, cells were homogenized in homogenization buffer containing 25 mM Tris-HCl, pH 7.4, 0.5 mM EDTA, 0.5 mM EGTA, and a protease inhibitor mixture. The homogenates were centrifuged at 14,000×g for 15 min, and supernatants were collected as cytosolic proteins.
For nuclear extracts cells were scraped into ice-cold phosphate-buffered saline and collected by centrifugation. The cell pellets were suspended in 3 volumes of lysis buffer (20 mM Hepes, pH 7.9, 10 mM KCl, 1 mM EDTA, pH 8.0, 0.2% Nonidet P-40, 10% glycerol, and a protease inhibitor mixture) followed by incubation on ice for 10 min. Cell suspensions were gently pipetted up and down; the lysates were then centrifuged at 14,000×g for 5 min at 4° C. to obtain nuclear pellets. Nuclear pellets were washed twice with cell lysis buffer (lacking Nonidet P-40 and protease inhibitor mixture) and then resuspended in 2 volumes of nuclear extract buffer (20 mM Hepes, pH 7.9, 10 mM KCl, 1 mM EDTA, pH 8.0, 420 mM NaCl, 20% glycerol, and a protease inhibitor mixture). The nuclei were extracted by incubation at 4° C. for 30 min with gentle agitation followed by centrifugation at 14,000×g at 4° C. for 5 min; the resultant supernatant fraction was used as a nuclear extract.

Another assay relates to Aβ. The assay is described as follows: Aβ levels in brain homogenates (cortex) of APP695/swe mice. The format is in vivo, mouse. The procedure: A group of non-transgenic and APP695/swe mice were fed a diet containing 50 mg/kg/day of compound 9. Treatment started at weaning (˜6 weeks of age) and lasted 4 months. At the end of treatment, the animals were sacrificed and the electrophysiological properties of hippocampal brain slices (as induced by theta burst stimulation to the Schaffer collaterals) were studied.
Note that at this age, the animals have not yet developed plaques. As expected from our previous results in cellular models (Ko and Puglielli, 2009), no effect on the Aβ42/Aβtotal ratio was observed (data not shown). In fact compound 9 affects BACE1 levels and, as such, impacts on the generation of all Aβ species.

In another assay the test system is ATase1 and ATase2. In words: Western blot of ATase1 and ATase2 levels in CHO cells over-expressing transgenic ATase1 or ATase2. Particulars: 10 μM, 48 hours. The format is cell-based, hamster. As to the method:
FIG. 4. Compound 9 causes degradation of the ATases. (A) H4 cells were treated with the indicated compounds (10 μM) for 48 hours prior to Western blot assessment of BACE1 and ATase1/ATase2 levels in total cell lysates. (B, D and E) Quantification of changes are expressed as percent of control (no treatment) and are the average (n=3)±S.D.*, P<0.05; **, P<0.005; ^#, P<0.0005. (C) ELISA determination of secreted Aβ in the conditioned media of the experiment described in (A). Results are expressed as percent of control (no treatment) and are the average (n=3)±S.D.*, P<0.05; **, P<0.005. (F) CHO cells over-expressing either ATase1 or ATase2 were treated with compound 9 (10 μM) for 48 hours prior to Western blot assessment of ATase1 and ATase2 levels in total cell lysates.
Western blotting was performed on a 4-12% Bis-Tris SDS-PAGE system (NuPAGE; Invitrogen, Carlsbad, Calif., USA) as described previously (Costantini et al., 2006; Jonas et al., 2008; Jonas et al., 2010; Ko and Puglielli, 2007; Ko and Puglielli, 2009; Pehar et al., 2010). […]
In general terms: A western blot detects proteins with antibodies after separation by electrophoresis.

Molecules are shown by their SMILES.

Turning to `O=c1c(Cl)c2oc3ccccc3nc-2c2ccccc12` [Compound 9], in assay [1], the “acetylation profile of cytosolic and nuclear proteins” value is on record as “Neither compound 9 nor compound 19 produced significant changes”. The “acetylation profile of the histone protein H3 and H4” value in assay [1] (nuclear fraction) is on record as “slight reduction”. For the same compound, in the assay with Aβ (50 mg/kg/day in diet, 4 months), the “reduction in soluble Aβ in the brain homogenates” value was around 50%. This compound gave an Aβ with Aβ (brain homogenates (cortex), 50 mg/kg/day in diet, 4 months) of 178 ± 14 ng/gr. In the assay with Aβ (data not shown), the Aβ42/Aβtotal ratio entry is recorded as “no effect”. Further, the “levels of transgenic ATase1 and ATase2” value in the assay with ATase1 and ATase2 is “significantly decreases”.
